Assay results: patent publication US20070281903A1, “Morinda Citrifolia-Based Formulation 5-LOX And 15-LOX” (priority 2006, published 2007)
Values joined by “and” are separate entries in the source; they are usually repeats but may differ in a detail not shown here. Equal entries are not always repeated.

Molecular target: T1, 5-Lipoxygenase (5-LOX) (Homo sapiens, UniProt P09917)
T1 construct: Human peripheral blood mononuclear leukocytes (PBML) were isolated through a Ficoll-Paque density gradient; endogenous in cells; host or cells: human peripheral blood mononuclear leukocytes (PBML)
T1 sequence (P09917 1-674): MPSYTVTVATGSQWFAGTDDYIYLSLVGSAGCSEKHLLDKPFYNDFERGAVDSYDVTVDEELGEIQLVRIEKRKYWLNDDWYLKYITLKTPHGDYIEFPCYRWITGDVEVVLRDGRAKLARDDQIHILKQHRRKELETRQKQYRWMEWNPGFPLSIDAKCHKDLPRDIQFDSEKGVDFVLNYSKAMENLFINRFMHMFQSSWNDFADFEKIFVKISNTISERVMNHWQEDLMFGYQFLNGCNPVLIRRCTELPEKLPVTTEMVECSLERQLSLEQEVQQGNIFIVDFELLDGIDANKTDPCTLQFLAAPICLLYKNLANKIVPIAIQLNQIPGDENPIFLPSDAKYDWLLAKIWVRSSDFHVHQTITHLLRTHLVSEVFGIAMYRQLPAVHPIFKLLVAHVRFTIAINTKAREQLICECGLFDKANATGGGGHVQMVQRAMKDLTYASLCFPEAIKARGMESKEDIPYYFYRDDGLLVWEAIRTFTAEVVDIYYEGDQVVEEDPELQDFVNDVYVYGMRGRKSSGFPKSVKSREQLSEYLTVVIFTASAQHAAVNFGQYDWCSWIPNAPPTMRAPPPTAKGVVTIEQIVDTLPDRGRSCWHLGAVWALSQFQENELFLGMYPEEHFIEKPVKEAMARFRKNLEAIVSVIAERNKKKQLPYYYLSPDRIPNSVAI
Experiment: 5-Lipoxygenase inhibition assay, LTB4 by EIA in A23187-stimulated human PBML
Type: cell-based
Conditions: for Avg. % Inh.: average of duplicates; for % Inh. / Product (pg/well): single replicate
Excerpt: Methods employed in this example were adapted from the scientific literature to maximize reliability and reproducibility. […] 110-13 (2000).
In this study, the 5-LOX source was human peripheral blood mononuclear cells (PBMNC) and the substrate was arachidonic acid having a general reaction of: arachidonic acid →5-LOX→5-HPETE→LTB4. Human peripheral blood mononuclear leukocytes (PBML) were isolated through a Ficoll-Paque density gradient. The inhibiting agent was processed Morinda citrifolia puree juice concentrate. Morinda citrifolia was pre-incubated with PBML (5×10^6 cell/ml) in HBSS buffer pH 7.4 at 37° C. for 15 minutes. […] Following neutralization with NaOH and centrifugation, the supernatant LTB4 is measured using an EIA kit.
The supernatant sample was utilized in same assay and protocols as outlined in Example One above, wherein the brown substance obtained was substituted for Morinda citrifolia puree juice.

`CC(Cc1ccc(O)c(O)c1)C(C)Cc1ccc(O)c(O)c1` (stereo not drawn) [NDGA, nordihydroguaretic acid] was tested, and the “Avg. % Inh.” value (Conc. 0.03 uM) was 6%, the “% Inh.” value (Conc. 0.03 uM) was 3.6% and 9.2% and the “Product (pg/well)” value (Conc. 0.03 uM) was 3608.3 pg/well and 3403.4 pg/well. For the same compound, the “Avg. % Inh.” value (Conc. 0.1 uM) was 36%, the “% Inh.” value (Conc. 0.1 uM) was 36.1% and the “Product (pg/well)” value (Conc. 0.1 uM) was 2433.3 pg/well. The “Avg. % Inh.” value (Conc. 0.3 uM) was 73%, the “% Inh.” value (Conc. 0.3 uM) was 73.5% and 72.8% and the “Product (pg/well)” value (Conc. 0.3 uM) was 1083.1 pg/well and 1106.1 pg/well. For the same compound, the “Avg. % Inh.” value (Conc. 1 uM) was 97%, the “% Inh.” value (Conc. 1 uM) was 97.0% and 97.4% and the “Product (pg/well)” value (Conc. 1 uM) was 233.7 pg/well and 217.9 pg/well. The “Avg. % Inh.” value (Conc. 3 uM) was 100%, the “% Inh.” value (Conc. 3 uM) was 99.7% and 100.8% and the “Product (pg/well)” value (Conc. 3 uM) was 134.9 pg/well and 94.3 pg/well.
